The source of these data is patent US9795597B2, “Cyclopropylamines as LSD1 inhibitors” (GlaxoSmithKline Intellectual Property (No.2) Limited, priority 2011, dated 2017).

SMILES strings stand for the structures.

For one assay, the target named is T1, LSD1 (Homo sapiens, UniProt O60341).
T1 construct: made in house
Put plainly: Biochemical assay for LSD-1 activity (luminescence, H3K4 dimethylated peptide substrate). Particulars: average of two or more tests; 30 min preincubation of enzyme and compound; read-out: LSD1 PIC50 MEAN (converted). As to the method:
Biochemical Assay for LSD-1 Activity
The LSD-1 luminescence assay is performed in a buffer containing 25 mM Tris, pH 7.5, 50 mM potassium chloride, 0.02% heat-denatured BSA, 2 mM CHAPS and milliQ ultrapure water. […] The enzyme and test compound are allowed to incubate together for 30 minutes at room temperature. Two microliters of the substrate mix are then added to each well of the plate to initiate the reaction. The plates are covered, protected from light and allowed to incubate for two hours at room temperature. Then, 4 uL of HyPerBlu peroxide detection luminescence reagent (Lumigen/Beckman Coulter, cat# HPB-00005) is added to each well to quench the demethylase reaction and generate the peroxide-dependent luminescence signal. The plates are then incubated for 15-30 minutes in the dark at room temperature prior to being read for Luminescence using a Perkin Elmer Viewlux plate reader. Percent inhibition is calculated based on no compound and no enzyme controls, and inhibition curves are then plotted to determine PIC50 values.

The target of the next assay is T2, MAO-B (Homo sapiens, UniProt P27338).
T2 construct: purchased Gentest-BD Biosciences 456284
T2 sequence (P27338 1-520): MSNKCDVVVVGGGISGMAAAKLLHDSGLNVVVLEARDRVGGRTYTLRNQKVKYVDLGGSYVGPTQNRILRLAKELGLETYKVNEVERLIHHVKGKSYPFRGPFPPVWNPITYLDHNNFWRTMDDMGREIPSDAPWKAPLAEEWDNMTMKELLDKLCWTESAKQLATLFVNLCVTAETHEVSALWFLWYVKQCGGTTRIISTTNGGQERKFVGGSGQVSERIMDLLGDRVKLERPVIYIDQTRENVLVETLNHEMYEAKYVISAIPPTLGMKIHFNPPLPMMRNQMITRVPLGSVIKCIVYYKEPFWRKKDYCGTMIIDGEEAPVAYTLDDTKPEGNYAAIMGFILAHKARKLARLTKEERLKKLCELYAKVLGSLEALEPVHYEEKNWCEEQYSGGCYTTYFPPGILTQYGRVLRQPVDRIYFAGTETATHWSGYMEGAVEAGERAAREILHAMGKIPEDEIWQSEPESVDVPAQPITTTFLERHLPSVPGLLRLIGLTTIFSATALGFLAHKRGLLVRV
Nature of the assay: Biochemical assay for MAO-B activity (FLINT, benzylamine/amplex red). As to conditions: average of two or more tests; 30 min preincubation of enzyme and compound; read-out: MAOB PIC50 MEAN (converted). Here is the method: Biochemical Assay for MAO-B Activity
The MAO-B FLINT assay is performed in a buffer containing 50 mM potassium phospate, pH 7.4, in milliQ ultrapure water. […] The enzyme and test compound are allowed to incubate together for 30 minutes at room temperature. Five microliters of the substrate mix are then added to each well of the plate to initiate the reaction. The plates are covered, protected from light and allowed to incubate for one hour at room temperature. […] Percent inhibition is calculated based on no compound and no enzyme controls, and inhibition curves are then plotted to determine PIC50 values.

For the compound `N[C@H]1CC[C@H](CN[C@@H]2C[C@H]2c2ccccc2)CC1` (relative stereo) [Example 10, trans-4-({[trans-2-Phenylcyclopropyl]amino}methyl)cyclohexanamine], the IC50 on LSD1 is 7.94 nM; on MAO-B it was 7940 nM.

For the compound `CC(=O)N1CCC(CN[C@@H]2C[C@H]2c2ccccc2)CC1` (relative stereo) [Example 15, 1-(4-(((trans-2-Phenylcyclopropyl)amino)methyl)piperidin-1-yl)ethanone], the IC50 at LSD1 was 316 nM; on MAO-B, 15800 nM.

Regarding `O=S(=O)(c1ccccc1)N1CCC(CN[C@@H]2C[C@H]2c2ccccc2)CC1` (relative stereo) [Example 13, trans-2-Phenyl-N-((1-(phenylsulfonyl)piperidin-4-yl)methyl)cyclopropanamine], the IC50 was 50.1 nM on LSD1 and 5010 nM on MAO-B.

Consider `Cc1noc(C)c1S(=O)(=O)N1CCC(CN[C@@H]2C[C@H]2c2ccccc2)CC1` (relative stereo) [Example 100, trans-N-((1-((3,5-dimethylisoxazol-4-yl)sulfonyl)piperidin-4-yl)methyl)-2-phenylcyclopropanamine], for which the IC50 on LSD1 was 79.4 nM; on MAO-B, 15800 nM.

For the compound `O=C(O)c1ccc(CN2CCC(CN[C@@H]3C[C@H]3c3ccccc3)CC2)cc1` [Example 29, 4-((4-((((1R,2S)-2-phenylcyclopropyl)amino)methyl)piperidin-1-yl)methyl)benzoic acid], the figures for the IC50 at LSD1 and on MAO-B were 158 nM and 25100 nM, respectively.

In the case of `O=C(c1ccccc1)N1CCC(CN[C@@H]2C[C@H]2c2ccccc2)CC1` (relative stereo) [Example 14, Phenyl(4-(((trans-2-phenylcyclopropyl)amino)methyl)piperidin-1-yl)methanone], the IC50 at LSD1 was 126 nM; at MAO-B, 39800 nM.

As to `CS(=O)(=O)c1ccc(CN2CCC(CN[C@@H]3C[C@H]3c3ccccc3)CC2)cc1` (relative stereo) [Example 43, trans-N-((1-(4-(Methylsulfonyl)benzyl)piperidin-4-yl)methyl)-2-phenylcyclopropanamine], the IC50 on LSD1 was 6.31 nM; on MAO-B it was 501 nM.

For `O=S(=O)(Nc1ccc([C@@H]2C[C@H]2NCC2CCNCC2)cc1)c1ccccc1` (relative stereo) [Example 91, N-(4-((trans)-2-((piperidin-4-ylmethyl)amino)cyclopropyl)phenyl)benzenesulfonamide], the IC50 on LSD1 is 6.31 nM; at MAO-B, 15800 nM.

In the case of `CC(C)(C)OC(=O)N[C@H]1CC[C@H](CN[C@@H]2C[C@H]2c2ccccc2)CC1` (relative stereo) [Example 9, 1,1-Dimethylethyl[trans-4-({[trans-2-phenylcyclopropyl]amino}methyl)cyclohexyl]carbamate], the values for the IC50 at LSD1 and at MAO-B were 158 nM and 398 nM, respectively.

Consider `OB1OCc2c(CN3CCC(CN[C@@H]4C[C@H]4c4ccccc4)CC3)cccc21` (relative stereo) [Example 55, 4-((4-(((trans-2-Phenylcyclopropyl)amino)methyl)piperidin-1-yl)methyl)benzo[c][1,2]oxaborol-1(3H)-ol], for which the figures for the IC50 on LSD1 and on MAO-B were 25.1 nM and 7940 nM, respectively.
